Consider 24 compounds from patent publication US8354414B2, “Substituted bicyclic pyrimidines” (Cephalon, Inc, priority 2006, dated 2013).

The target of data set [1] is T1, CDK5/GST-p25 (Homo sapiens, UniProt Q00535).
T1 construct: The final construct, encoding for full-length human CDK5; made in house; host or cells: Sf21 insect cells (baculovirus co-infection)
Put plainly: Inhibition of CDK5/GST-p25 kinase activity (ELISA with time-resolved fluorescence readout). The format is biochemical. An outline of the steps: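 Sf21-coexpressed full-length human CDK5 with GST-p25 (p35 aa 108-307), glutathione-purified, at 2 ng/ml was reacted for 20 min at 37 °C on plate-coated GST-Rb(773-928). Buffer was 20 mM HEPES pH 7.2, 10 µM ATP, 10 mM MgCl2 and 2.5% DMSO. Phospho-Rb Ser-780 was detected by Eu-labelled antibody TRF, and IC50 curves were fitted.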
Background: ELISA stands for enzyme-linked immunosorbent assay.

Data set [2] addresses T2, His6-GSK-3β (Homo sapiens, UniProt P49841).
T2 construct: made in house; host or cells: Sf21 insect cells (baculovirus)
Put plainly: Inhibition of His6-GSK-3β kinase activity (ELISA-based format, time-resolved fluorescence readout). In kind it is biochemical. Particulars: read-out: GSK3β IC50. An outline of the steps: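 N-terminal His6-tagged full-length human GSK-3β (aa 2-419) expressed in Sf21 cells, 200 ng/ml, phosphorylating plate-coated GST-Rb with 20 μM ATP in pH 7.2 HEPES buffer, 30 min at 37° C. Phospho-Rb (Ser-780) detected by antibody plus Eu-labelled secondary, time-resolved fluorescence; IC50 from curves.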

Molecules are shown by their SMILES. Read-outs that look alike come from different tables or passages of the source. Some results are limits rather than exact numbers.

T1 sequence (Q00535 whole entry): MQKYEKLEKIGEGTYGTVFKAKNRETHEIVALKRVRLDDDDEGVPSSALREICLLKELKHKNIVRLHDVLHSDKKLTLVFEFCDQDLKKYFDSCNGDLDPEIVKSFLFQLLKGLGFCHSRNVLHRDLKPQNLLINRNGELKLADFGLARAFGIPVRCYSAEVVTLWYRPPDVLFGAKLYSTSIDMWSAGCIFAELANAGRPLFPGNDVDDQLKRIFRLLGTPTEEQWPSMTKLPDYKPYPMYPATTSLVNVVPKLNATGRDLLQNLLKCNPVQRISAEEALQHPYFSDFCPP
T1 sequence (Q15078 108-307 partner limits assumed): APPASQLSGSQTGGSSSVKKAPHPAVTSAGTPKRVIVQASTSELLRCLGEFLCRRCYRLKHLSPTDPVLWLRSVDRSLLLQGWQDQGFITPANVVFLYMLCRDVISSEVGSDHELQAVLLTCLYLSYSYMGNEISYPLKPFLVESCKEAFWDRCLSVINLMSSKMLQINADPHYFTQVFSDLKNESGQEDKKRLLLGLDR
T2 sequence (P49841 2-419): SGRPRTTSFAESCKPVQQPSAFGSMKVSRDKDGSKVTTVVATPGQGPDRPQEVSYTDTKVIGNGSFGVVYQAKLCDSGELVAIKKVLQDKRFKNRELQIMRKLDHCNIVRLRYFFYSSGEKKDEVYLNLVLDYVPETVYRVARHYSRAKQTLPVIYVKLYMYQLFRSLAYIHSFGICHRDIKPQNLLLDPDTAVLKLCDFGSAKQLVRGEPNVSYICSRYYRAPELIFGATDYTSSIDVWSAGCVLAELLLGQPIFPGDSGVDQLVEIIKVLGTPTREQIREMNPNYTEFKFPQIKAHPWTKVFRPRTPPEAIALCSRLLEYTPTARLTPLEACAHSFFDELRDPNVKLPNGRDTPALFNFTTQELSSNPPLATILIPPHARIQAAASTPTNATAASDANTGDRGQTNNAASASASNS

For `CN(C)CCNc1nc(C2C(=O)Nc3ccc(C(F)(F)F)cc32)c2cn(C3CCCC3)nc2n1` (stereo not drawn) [Example 251, 3-[2-Cyclopentyl-6-(2-dimethylamino-ethylamino)-2H-pyrazolo[3,4-d]pyrimidin-4-yl]-5-trifluoromethyl-1,3-dihydro-indol-2-one], the melting point is 211 to 213 °C. Moreover, in data set [1] (numeric bounds), the concentration for half-maximal inhibition (IC50) is > 3000 nM. Further, the IC50 in data set [2] (class symbols) is < 300 nM.
`CN(C)CCCNc1nc(C2C(=O)Nc3ccc(Br)cc32)c2cn(C3CCCC3)nc2n1` (stereo not drawn) [Example 371, 5-Bromo-3-[2-cyclopentyl-6-(3-dimethylamino-propylamino)-2H-pyrazolo [3,4-d]pyrimidin-4-yl]-1,3-dihydro-indol-2-one] came in with a melting point of 198 to 200 °C. For the same compound, the 50% inhibitory concentration (IC50) in data set [1] (numeric bounds) was > 3000 nM. Further, in data set [2] (class symbols), the half-maximal inhibitory concentration (IC50) was < 300 nM.
Turning to `CCOCCn1cc2c(C3C(=O)Nc4ccc(Cl)cc43)nc(NCCN3CCOCC3)nc2n1` (stereo not drawn) [Example 217, 5-Chloro-3-[2-(2-ethoxy-ethyl)-6-(2-morpholin-4-yl-ethylamino)-2H-pyrazolo [3,4-d]pyrimidin-4-yl]-1,3-dihydro-indol-2-one], the melting point fell in the range of 293 to 294 °C. Besides, the IC50 in data set [1] (class symbols) was < 300 nM. The IC50 in data set [2] (class symbols) is < 300 nM.
For `COCCNc1nc(C2C(=O)Nc3ccc(Br)cc32)c2cn(CCOC)nc2n1` (stereo not drawn) [Example 235, 5-Bromo-3-[2-(2-methoxy-ethyl)-6-(2-methoxy-ethylamino)-2H-pyrazolo [3,4-d]pyrimidin-4-yl]-1,3-dihydro-indol-2-one], the melting point was > 300 °C. Moreover, in data set [1] (class symbols), the IC50 was < 300 nM. For the same compound, the IC50 in data set [2] (class symbols) is < 300 nM.
For `CNc1nc(C2C(=O)Nc3ccc(C(F)(F)F)cc32)c2cn(C3CCCC3)nc2n1` (stereo not drawn) [Example 159, 3(-2-cyclopentyl-6-methylamino-2H-pyrazolo[3,4-d]pyrimidin-4-yl)-5-trifluoromethyl-1,3-dihydro-indol-2-one], the melting point is > 300 °C. Besides, the IC50 in data set [1] (class symbols) is > 10000 nM. Further, in data set [2] (class symbols), the IC50 was > 10000 nM.
Regarding `CCCn1cc2c(C3C(=O)Nc4ccc(C#N)cc43)nc(NCCc3ccccn3)nc2n1` (stereo not drawn) [Example 187, 2-Oxo-3-[2-propyl-6-(2-pyridin-2-yl-ethylamino)-2H-pyrazolo[3,4-d]pyrimidin-4-yl]-2,3-dihydro-1H-indole-5-carbonitrile], the melting point is > 300 °C. Besides, the IC50 in data set [1] (class symbols) is < 300 nM. The IC50 in data set [2] (class symbols) is < 300 nM.
In turn, `CCOCCn1cc2c(C3C(=O)Nc4ccc(Br)cc43)nc(NC[C@H](C)O)nc2n1` (stereo partly drawn) [Example 238, 5-Bromo-3-[2-(2-ethoxy-ethyl)-6-((S)-2-hydroxy-propylamno)-2H-pyrazolo[3,4-d]pyrimidin-4-yl]-1,3-dihydro-indol-2-one] gave a melting point of 297 to 299 °C. In data set [1] (class symbols), the IC50 was < 300 nM. Besides, the IC50 in data set [2] (class symbols) was < 300 nM.
Regarding `Cn1cc2c(C3C(=O)Nc4ccc(Br)cc43)ncnc2n1` (stereo not drawn) [Example 82, 5-Bromo-3-(2-methyl-2H-pyrazolo[3,4-d]pyrimidin-4-yl)-1,3-dihydro-indol-2-one], the melting point was 360 to 365 °C. In data set [1] (class symbols), the concentration for half-maximal inhibition (IC50) is < 300 nM. Further, the IC50 in data set [2] (class symbols) was in the range of 300 to 3000 nM.
Take `O=C1Nc2ccc([N+](=O)[O-])cc2C1c1ncnc2c1cnn2C1CCCC1` (stereo not drawn) [Example 57, 3-(1-Cyclopentyl-1H-pyrazolo[3,4-d]pyrimidin-4-yl)-5-nitro-1,3-dihydro-indol-2-one]: the melting point is > 300 °C (dec.). Also, the IC50 in data set [1] (class symbols) was > 10000 nM. The IC50 in data set [2] (class symbols) was 300 to 3000 nM.
The corresponding values for `O=C1Nc2ccc(C(F)(F)F)cc2C1c1nc(NCCc2cccnc2)nc2nn(C3CCCC3)cc12` (stereo not drawn) [Example 160, 3-[2-cyclopentyl-6-(2-pyridin-3-yl-ethylamino)-2H-pyrazolo[3,4-d]pyrimidin-4-yl]-5-trifluoromethyl-1,3-dihydro-indol-2-one] are 278 to 280 °C, > 10000 nM and < 300 nM.
In the case of `O=C1Nc2ccccc2C1c1nc(NCCc2cccnc2)nc2nn(C3CCCC3)cc12` (stereo not drawn) [Example 155, 3-[2-cyclopentyl-6-(2-pyridin-3-yl-ethylamino)-2H-pyrazolo [3,4-d]pyrimidin-4-yl]-1,3-dihydro-indol-2-one], the melting point was 258 to 260 °C. Besides, the IC50 in data set [1] (numeric bounds) is > 1000 nM. For the same compound, the IC50 in data set [2] (class symbols) is 300 to 3000 nM.
`CCCn1cc2c(C3C(=O)Nc4ccc(C#N)cc43)nc(NCCc3cccnc3)nc2n1` (stereo not drawn) [Example 185, 2-Oxo-3-[2-propyl-6-(2-pyridin-3-yl-ethylamino)-2H-pyrazolo [3,4-d]pyrimidin-4-yl]-2,3-dihydro-1H-indole-5-carbonitrile] showed a melting point of 302 to 305 °C. Also, the IC50 in data set [1] (class symbols) was < 300 nM. Also, the IC50 in data set [2] (class symbols) was < 300 nM.
Take `O=C1Nc2ccc(C(F)(F)F)cc2C1c1ncnc2c1cnn2C1CCCC1` (stereo not drawn) [Example 56, 3-(1-Cyclopentyl-1H-pyrazolo [3,4-d]pyrimidine-4-yl)-5-trifluoromethyl-1,3-dihydro-indol-2-one]: the melting point is > 300 °C. In addition, in data set [1] (class symbols), the IC50 is > 10000 nM. Also, the IC50 in data set [2] (class symbols) was > 10000 nM.
With `CNCCCNc1nc(C2C(=O)Nc3ccc(Br)cc32)c2cn(C3CCCC3)nc2n1.Cl` (stereo not drawn) [Example 379, 5-Bromo-3-[2-cyclopentyl-6-(3-methylamino-propylamino)-2H-pyrazolo[3,4-d]pyrimidin-4-yl]-1,3-dihydro-indol-2-one hydrochloride salt], the melting point is 208 to 211 °C. In addition, in data set [1] (numeric bounds), the concentration for half-maximal inhibition (IC50) was > 3000 nM. Besides, in data set [2] (class symbols), the IC50 was < 300 nM.
For the compound `O=C1Nc2ccc(Cl)cc2C1c1ncnc2c1cnn2C1CCCCC1` (stereo not drawn) [Example 74, 5-Chloro-3-(1-Cyclohexyl-1H-pyrazolo[3,4-d]pyrimidin-4-yl)-1,3-dihydro-indol-2-one], the melting point was in the range of 300 to 305 °C. Further, the IC50 in data set [1] (class symbols) is > 10000 nM. The IC50 in data set [2] (class symbols) is > 10000 nM.
For the compound `CCNc1nc(C2C(=O)Nc3ccc(C#N)cc32)c2cn(C3CCCC3)nc2n1` (stereo not drawn) [Example 166, 3-(2-cyclopentyl-6-ethylamino-2H-pyrazolo[3,4-d]pyrimidin-4-yl)-2-oxo-2,3-dihydro-1H-indole-5-carbonitrile], the melting point was 373 °C (dec.). 10 µM produced 41% inhibition in data set [1]. In addition, the IC50 in data set [2] (class symbols) is < 300 nM.
`CCCCCn1cc2c(C3C(=O)Nc4ccc(C(F)(F)F)cc43)nc(NCCCN)nc2n1` (stereo not drawn) [Example 289, 3-[6-(3-Amino-propylamino)-2-pentyl-2H-pyrazolo[3,4-d]pyrimidin-4-yl]-5-trifluoromethyl-1,3-dihydro-indol-2-one]: the melting point was 235 °C (dec.). The IC50 in data set [1] (class symbols) was < 300 nM. Besides, in data set [2] (class symbols), the IC50 was < 300 nM.
Consider `CCCn1cc2c(C3C(=O)Nc4ccc(S(=O)(=O)N(C)C)cc43)nc(Cl)nc2n1` (stereo not drawn) [Example 204, 3-(6-Chloro-2-propyl-2H-pyrazolo [3,4-d]pyrimidin-4-yl)-2-oxo-2,3-dihydro-1H-indole-5-sulfonic acid dimethylamide], for which the melting point is > 300 °C. In addition, in data set [1] (class symbols), the IC50 lay in the range of 300 to 3000 nM. Besides, in data set [2] (numeric bounds), the half-inhibitory concentration (IC50) is > 3000 nM.
With `CC(=O)NCCNc1nc(C2C(=O)Nc3ccc(C#N)cc32)c2cn(C3CCCC3)nc2n1` (stereo not drawn) [Example 151, 3-(6-(2-acetylamino-ethylamino)-2-cyclopentyl-2H-pyrazolo [3,4-d]pyrimidin-4-yl)-2-oxo-2,3-dihydro-1H-indole-5-carbonitrile], the melting point is > 300 °C. In addition, the IC50 in data set [1] (class symbols) was < 300 nM. In addition, in data set [2] (class symbols), the half-maximal inhibitory concentration (IC50) was < 300 nM.
`C[C@H](O)CNc1nc(C2C(=O)Nc3ccc(Br)cc32)c2cn(C)nc2n1` (stereo partly drawn) [Example 304, 5-Bromo-3-[6-(2-(S)-hydroxypropylamino)-2-methyl-2H-pyrazolo [3,4-d]pyrimidin-4-yl]-1,3-dihydro-indol-2-one] yielded a melting point of 338 to 340 °C. For the same compound, the IC50 in data set [1] (class symbols) is < 300 nM. In addition, the IC50 in data set [2] (class symbols) was < 300 nM.
Regarding `O=C1Nc2ccccc2C1c1nc(NCc2ccncc2)nc2nn(C3CCCC3)cc12` (stereo not drawn) [Example 241, 3-{2-Cyclopentyl-6-[(pyridin-4-ylmethyl)-amino]-2H-pyrazolo[3,4-d]pyrimidin-4-yl}-1,3-dihydro-indol-2-one], the melting point lay in the range of 198 to 200 °C. In data set [1] (class symbols), this compound showed a 50% inhibitory concentration (IC50) of 300 to 3000 nM. Further, the IC50 in data set [2] (class symbols) is < 300 nM.
`O=C1Nc2ccc(C(F)(F)F)cc2C1c1nc(NCc2cccnc2)nc2nn(C3CCCC3)cc12` (stereo not drawn) [Example 161, 3-{2-cyclopentyl-6-[(pyridin-3-ylmethyl)-amino]-2H-pyrazolo [3,4-d]pyrimidin-4-yl}-5-trifluoromethyl-1,3-dihydro-indol-2-one]: the melting point is > 300 °C. The compound also displayed an inhibition at 10 µM in data set [1] of 68%. The IC50 in data set [2] (class symbols) was < 300 nM.
On to `COCCn1cc2c(C3C(=O)Nc4ccc(Br)cc43)nc(Cl)nc2n1` (stereo not drawn) [Example 225, 5-Bromo-3-[6-chloro-2-(2-methoxy-ethyl)-2H-pyrazolo [3,4-d]pyrimidin-4-yl]-1,3-dihydro-indol-2-one], for which the melting point is > 300 °C. The IC50 in data set [1] (class symbols) was > 10000 nM. In addition, the IC50 in data set [2] (class symbols) is < 300 nM.
Regarding `O=C1Nc2c(F)cc(F)cc2C1c1ncnc2c1cnn2C1CCCC1` (stereo not drawn) [Example 61, 3-(1-cyclopentyl-1H-pyrazolo[3,4-d]pyrimidin-4-yl)-5,7-difluoro-1,3-dihydro-indol-2-one], the melting point is > 300 °C. In addition, the IC50 in data set [1] (class symbols) is > 10000 nM. In addition, the IC50 in data set [2] (class symbols) was > 10000 nM.

As usually defined, the IC50 is the concentration that inhibits the measured activity by half. What is called melting point is the temperature, or range, at which the solid turns liquid. One may read the inhibition as the change of the read-out against control, counted positive when it falls. The low end stands for a weak effect, the high end for a strong effect.
